From ChEMBL document CHEMBL5608177, “Antitumor activity and transcriptome sequencing (RNA-seq) analyses of hepatocellular carcinoma cells in response to exposure triterpene-nucleoside conjugates” (Eur J Med Chem, 2024)
Calls of active or inactive are those of the source. The rule behind the calls is not given here.

Experiments:
KYSE-150 cell line = assay: Antiproliferative activity against human KYSE-150 cell line assessed as inhibition of cell growth incubated for 48 hrs by CCK-8 reagent based spectrophotometric analysis; assay type: functional; details: KYSE-150, 48 h
HeLa = assay: Antiproliferative activity against human HeLa cells assessed as inhibition of cell growth incubated for 48 hrs by CCK-8 reagent based spectrophotometric analysis; assay type: functional
HepG2 = assay: Antiproliferative activity against human HepG2 cells assessed as inhibition of cell growth incubated for 48 hrs by CCK-8 reagent based spectrophotometric analysis; assay type: functional; details: HepG2, 48 h
SMMC-7721 [1] = assay: Antiproliferative activity against human SMMC-7721 cells assessed as inhibition of cell growth incubated for 48 hrs by CCK-8 reagent based spectrophotometric analysis; assay type: functional; details: SMMC-7721, 48 h
MCF7 = assay: Antiproliferative activity against human MCF7 cells assessed as inhibition of cell growth incubated for 48 hrs by CCK-8 reagent based spectrophotometric analysis; assay type: functional; details: MCF7, 48 h
PC-3 = assay: Antiproliferative activity against human PC-3 cells assessed as inhibition of cell growth incubated for 48 hrs by CCK-8 reagent based spectrophotometric analysis; assay type: functional; details: PC-3, 48 h
SW-620 = assay: Antiproliferative activity against human SW620 cells assessed as inhibition of cell growth incubated for 48 hrs by CCK-8 reagent based spectrophotometric analysis; assay type: functional; details: SW-620, 48 h
A549 = assay: Antiproliferative activity against human A549 cells assessed as inhibition of cell growth incubated for 48 hrs by CCK-8 reagent based spectrophotometric analysis; assay type: functional; details: A549, 48 h
[2] = Aqueous solubility of the compound in […] by HPLC analysis; assay type: physicochemical
SMMC-7721 [3] = assay: Antitumor activity against human SMMC-7721 cells xenografted in BALB/c mouse assessed as reduction in tumor weight at 25 mg/kg,ip administrated 3 times weekly for 3 weeks (reference value: 0.573 +/- 0.137 g); assay type: functional
SMMC-7721 [4] = assay: Antitumor activity against human SMMC-7721 cells xenografted in BALB/c mouse assessed as inhibition of tumor growth at 25 mg/kg,ip administrated 3 times weekly for 3 weeks relative to control; assay type: functional; set-up: scale not given: the % may be the effect or the level left
SMMC-7721 [5] = assay: Antitumor activity against human SMMC-7721 cells xenografted in BALB/c mouse assessed as reduction in tumor growth at 25 mg/kg,ip administrated 3 times weekly for 3 weeks; assay type: functional, organism-based
SMMC-7721 [6] = assay: Antitumor activity against human SMMC-7721 cells xenografted in BALB/c mouse assessed as reduction in tumor weight at 25 mg/kg,ip administrated 3 times weekly for 3 weeks; assay type: functional, organism-based

Compound	IC50 (KYSE-150 cell line) [µM]	IC50 (HeLa) [µM]	IC50 (HepG2) [µM]	IC50 (SMMC-7721 [1]) [µM]	IC50 (MCF7) [µM]	IC50 (PC-3) [µM]	IC50 (SW-620) [µM]	IC50 (A549) [µM]	solubility [2] [µM]	Activity (SMMC-7721 [3]) [g]	Activity (SMMC-7721 [4]) [%]	Activity (SMMC-7721 [5])	Activity (SMMC-7721 [6])
C=C(C)[C@@H]1CC[C@]2(C(=O)O)CC[C@]3(C)[C@H](CC[C@@H]4[C@@]5(C)C[C@@H](Cc6cn([C@]7(CO)O[C@@H](n8ccc(O)nc8=O)[C@@H](F)[C@@H]7O)nn6)[C@H](O)C(C)(C)[C@@H]5CC[C@]43C)[C@@H]12	> 100	> 100	> 100	> 100	> 100	> 100	> 100	> 100	–	–	–	–	–
C=C(C)[C@@H]1CC[C@]2(C(=O)OC)CC[C@]3(C)[C@H](CC[C@@H]4[C@@]5(C)C[C@@H](Cc6cn([C@]7(CO)O[C@@H](n8ccc(N)nc8=O)[C@H](O)[C@@H]7O)nn6)C(=O)C(C)(C)[C@@H]5CC[C@]43C)[C@@H]12	68.7	40.4	> 100	68.5	> 100	> 100	35.8	> 100	–	–	–	–	–
C=C(C)[C@@H]1CC[C@]2(C(=O)O)CC[C@]3(C)[C@H](CC[C@@H]4[C@@]5(C)C[C@@H](Cc6cn([C@]7(CO)O[C@@H](n8ccc(O)nc8=O)[C@H](O)[C@@H]7O)nn6)[C@H](O)C(C)(C)[C@@H]5CC[C@]43C)[C@@H]12	> 100	> 100	> 100	> 100	> 100	> 100	> 100	> 100	–	–	–	–	–
C=C(C)[C@@H]1CC[C@]2(C(=O)OC)CC[C@]3(C)[C@H](CC[C@@H]4[C@@]5(C)C[C@@H](Cc6cn([C@]7(CO)O[C@@H](n8ccc(N)nc8=O)[C@@H](F)[C@@H]7O)nn6)[C@H](O)C(C)(C)[C@@H]5CC[C@]43C)[C@@H]12	29.3	24.1	55.8	70.2	70.2	> 100	18	> 100	–	–	–	–	–
C=C(C)[C@@H]1CC[C@]2(C(=O)OC)CC[C@]3(C)[C@H](CC[C@@H]4[C@@]5(C)C[C@@H](Cc6cn([C@H]7C[C@H](n8cc(C)c(O)nc8=O)O[C@@H]7CO)nn6)[C@H](O)C(C)(C)[C@@H]5CC[C@]43C)[C@@H]12	7.82	20.6	19.5	32.7	39.4	18.1	8.75	41.2	–	–	–	–	–
C=C(C)[C@@H]1CC[C@]2(C(=O)O)CC[C@]3(C)[C@H](CC[C@@H]4[C@@]5(C)CC[C@H](O)C(C)(C)[C@@H]5CC[C@]43C)[C@@H]12 [BETULINIC ACID]	23.9	31.3	40	43.6	54.8	> 100	54.3	69.8	< 0.11	–	–	–	–
C=C(C)[C@@H]1CC[C@]2(C(=O)O)CC[C@]3(C)[C@H](CC[C@@H]4[C@@]5(C)C[C@@H](Cc6cn([C@]7(CO)O[C@@H](n8ccc(N)nc8=O)[C@@H](F)[C@@H]7O)nn6)[C@H](O)C(C)(C)[C@@H]5CC[C@]43C)[C@@H]12	> 100	> 100	> 100	> 100	> 100	> 100	> 100	> 100	–	–	–	–	–
CC(=O)O[C@H]1C(=O)[C@@]2(C)[C@H]([C@H](OC(=O)c3ccccc3)[C@]3(O)C[C@H](OC(=O)[C@H](O)[C@@H](NC(=O)c4ccccc4)c4ccccc4)C(C)=C1C3(C)C)[C@]1(OC(C)=O)CO[C@@H]1C[C@@H]2O [PACLITAXEL]	–	–	–	–	–	–	–	–	–	0.22	61.6	inactive	inactive
C=C(C)[C@@H]1CC[C@]2(C(=O)OC)CC[C@]3(C)[C@H](CC[C@@H]4[C@@]5(C)C[C@@H](Cc6cn([C@]7(CO)O[C@@H](n8ccc(N)nc8=O)[C@H](O)[C@@H]7O)nn6)[C@H](O)C(C)(C)[C@@H]5CC[C@]43C)[C@@H]12	20.7	46.2	85.7	67.3	87.6	> 100	48.9	> 100	–	–	–	–	–
Cc1cn([C@H]2C[C@H](N=[N+]=[N-])[C@@H](CO)O2)c(=O)[nH]c1=O [ZIDOVUDINE]	> 100	> 100	> 100	> 100	> 100	> 100	> 100	20.7	–	–	–	–	–
C=C(C)[C@@H]1CC[C@]2(C(=O)O)CC[C@]3(C)[C@H](CC[C@@H]4[C@@]5(C)C[C@@H](Cc6cn([C@]7(CO)O[C@@H](n8ccc(N)nc8=O)[C@H](O)[C@@H]7O)nn6)[C@H](O)C(C)(C)[C@@H]5CC[C@]43C)[C@@H]12	42.4	15.3	72.7	17	62	86.2	28.1	> 100	–	–	–	–	–
C=C(C)[C@@H]1CC[C@]2(C(=O)OC)CC[C@]3(C)[C@H](CC[C@@H]4[C@@]5(C)C[C@@H](Cc6cn([C@]7(CO)O[C@@H](n8ccc(O)nc8=O)[C@H](O)[C@@H]7O)nn6)[C@H](O)C(C)(C)[C@@H]5CC[C@]43C)[C@@H]12	20.3	20	44.6	37.3	26.6	41	25.9	53.2	–	–	–	–	–
C=C(C)[C@@H]1CC[C@]2(C(=O)OC)CC[C@]3(C)[C@H](CC[C@@H]4[C@@]5(C)C[C@@H](Cc6cn([C@]7(CO)O[C@@H](n8ccc(N)nc8=O)[C@@H](F)[C@@H]7O)nn6)C(=O)C(C)(C)[C@@H]5CC[C@]43C)[C@@H]12	19.2	28.2	69.9	52.7	61.4	> 100	31.2	> 100	–	–	–	–	–
C=C(C)[C@@H]1CC[C@]2(C(=O)OC)CC[C@]3(C)[C@H](CC[C@@H]4[C@@]5(C)C[C@@H](Cc6cn([C@]7(CO)O[C@@H](n8ccc(O)nc8=O)[C@@H](F)[C@@H]7O)nn6)[C@H](O)C(C)(C)[C@@H]5CC[C@]43C)[C@@H]12	10.7	15.1	37.5	24.5	23.3	23.5	15.2	36.4	–	–	–	–	–
C=C(C)[C@@H]1CC[C@]2(C(=O)OC)CC[C@]3(C)[C@H](CC[C@@H]4[C@@]5(C)C[C@@H](Cc6cn([C@]7(CO)O[C@@H](n8ccc(O)nc8=O)[C@H](O)[C@@H]7O)nn6)C(=O)C(C)(C)[C@@H]5CC[C@]43C)[C@@H]12	36.4	27.9	62.9	40.5	55.3	45.5	19.1	70.8	–	–	–	–	–
C=C(C)[C@@H]1CC[C@]2(C(=O)O)CC[C@]3(C)[C@H](CC[C@@H]4[C@@]5(C)C[C@@H](Cc6cn([C@H]7C[C@H](n8cc(C)c(O)nc8=O)O[C@@H]7CO)nn6)[C@H](O)C(C)(C)[C@@H]5CC[C@]43C)[C@@H]12	7.53	16.4	38.4	15	7.01	26.6	17.5	64.4	–	–	–	–	–
